Data published in patent US10745382B2 (BRISTOL-MYERS SQUIBB COMPANY, priority 2015, dated 2020).
pIC50: −log10 of the molar value.

Target: T1, PD-1/PD-L1 (Homo sapiens, UniProt Q9NZQ7)
T1 construct: made in house; host or cells: HEK293T
Assay: PD-1/PD-L1 Homogenous Time-Resolved Fluorescence (HTRF) binding assay
Conditions: PD-L1-His 10 nM, PD-1-Ig 20 nM; value given as range class; read-out: Range or IC50
Method: The ability of the compounds of formula (I) to bind to PD-L1 was investigated using a PD-1/PD-L1 Homogenous Time-Resolved Fluorescence (HTRF) binding assay.
Homogenous Time-Resolved Fluorescence (HTRF) Binding Assay.
All binding studies were performed in an HTRF assay buffer consisting of dPBS supplemented with 0.1% […] bovine serum albumin and 0.05% (v/v) Tween-20. […] HTRF detection was achieved using europium crypate-labeled anti-Ig (1 nM final) and allophycocyanin (APC) labeled anti-His (20 nM final). Antibodies were diluted in HTRF detection buffer and 5 μl was dispensed on top of the binding reaction. […] Additional binding assays were established between the human proteins PD-1-Ig/PD-L2-His (20 & 5 nM, respectively) and CD80-His/PD-L1-Ig (100 & 10 nM, respectively). […]

T1 sequence (Q9NZQ7 with tags, fused parts or gaps): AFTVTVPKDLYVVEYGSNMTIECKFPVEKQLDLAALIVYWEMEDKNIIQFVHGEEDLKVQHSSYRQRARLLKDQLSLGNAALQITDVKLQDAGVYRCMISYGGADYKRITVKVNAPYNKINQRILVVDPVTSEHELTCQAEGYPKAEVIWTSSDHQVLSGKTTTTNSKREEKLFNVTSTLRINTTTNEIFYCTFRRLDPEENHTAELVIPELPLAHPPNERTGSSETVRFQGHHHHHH

Structure (SMILES)	pIC50
Cc1c(COc2cc(OCc3cncc(C#N)c3)c(CN3CC[C@H]3C(=O)O)cc2Cl)cccc1-c1cccc(OCCC(=O)N2CC[C@@H](O)C2)c1 [Example 1012, (S)-1-(5-chloro-2-((5-cyanopyridin-3-yl)methoxy)-4-((3′-(3-((R)-3-hydroxypyrrolidin-1-yl)-3-oxopropoxy)-2-methyl-[1,1′-biphenyl]-3-yl)methoxy)benzyl)azetidine-2-carboxylic Acid]	8.00 to 9.68
Cc1c(COc2cc(OCc3cncc(C#N)c3)c(CN3CCCC[C@H]3C(=O)O)cc2Cl)cccc1-c1cccc(OCCCN2CC[C@@H](O)C2)c1 [Example 1013, (S)-1-(5-chloro-2-((5-cyanopyridin-3-yl)methoxy)-4-((3′-(3-((R)-3-hydroxypyrrolidin-1-yl)propoxy)-2-methyl-[1,1′-biphenyl]-3-yl)methoxy)benzyl)piperidine-2-carboxylic Acid]	8.00 to 9.68
Cc1c(COc2cc(OCc3cncc(C#N)c3)c(CNC[C@@H](O)CC(=O)O)cc2Cl)cccc1-c1cccc(OCCCN2CC[C@@H](O)C2)c1 [Example 1014, (S)-4-((5-chloro-2-((5-cyanopyridin-3-yl)methoxy)-4-((3′-(3-((R)-3-hydroxypyrrolidin-1-yl)propoxy)-2-methyl-[1,1′-biphenyl]-3-yl)methoxy)benzyl)amino)-3-hydroxybutanoic Acid]	8.00 to 9.68
CC(=O)NCCNCc1cc(Cl)c(OCc2cccc(-c3cccc(OCCCN4CC[C@@H](O)C4)c3)c2C)cc1OCc1cncc(C#N)c1 [Example 1015, (R)—N-(2-((5-chloro-2-((5-cyanopyridin-3-yl)methoxy)-4-((3′-(3-(3-hydroxypyrrolidin-1-yl)propoxy)-2-methyl-[1,1′-biphenyl]-3-yl)methoxy)benzyl)amino)ethyl)acetamide]	8.00 to 9.68
Cc1c(COc2cc(OCc3cncc(C#N)c3)c(CN[C@H](CO)C(=O)O)cc2Cl)cccc1-c1cccc(OCCCN2CC[C@@H](O)C2)c1 [Example 1016, (R)-2-((5-chloro-2-((5-cyanopyridin-3-yl)methoxy)-4-((3′-(3-((R)-3-hydroxypyrrolidin-1-yl)propoxy)-2-methyl-[1,1′-biphenyl]-3-yl)methoxy)benzyl)amino)-3-hydroxypropanoic Acid]	8.00 to 9.68
Cc1c(COc2cc(OCc3cncc(C#N)c3)c(CN[C@@](C)(CO)C(=O)O)cc2Cl)cccc1-c1cccc(OCCCN2CC[C@@H](O)C2)c1 [Example 1017, (S)-2-((5-chloro-2-((5-cyanopyridin-3-yl)methoxy)-4-((3′-(3-((R)-3-hydroxypyrrolidin-1-yl)propoxy)-2-methyl-[1,1′-biphenyl]-3-yl)methoxy)benzyl)amino)-3-hydroxy-2-methylpropanoic Acid]	8.00 to 9.68
Cc1c(COc2cc(OCc3cncc(C#N)c3)c(CN3CCCC[C@H]3C(=O)O)cc2Cl)cccc1-c1cccc(OCCCN2CCC[C@@H](O)C2)c1 [Example 1018, (S)-1-(5-chloro-2-((5-cyanopyridin-3-yl)methoxy)-4-((3′-(3-((R)-3-hydroxypiperidin-1-yl)propoxy)-2-methyl-[1,1′-biphenyl]-3-yl)methoxy)benzyl)piperidine-2-carboxylic Acid]	8.00 to 9.68
Cc1c(COc2cc(OCc3cncc(C#N)c3)c(CN3CCCC[C@H]3C(=O)O)cc2Cl)cccc1-c1cccc(OCCCN2CCC[C@H](O)C2)c1 [Example 1019, (S)-1-(5-chloro-2-((5-cyanopyridin-3-yl)methoxy)-4-((3′-(3-((S)-3-hydroxypiperidin-1-yl)propoxy)-2-methyl-[1,1′-biphenyl]-3-yl)methoxy)benzyl)piperidine-2-carboxylic Acid]	8.00 to 9.68
C=CC(=O)NCCCOc1cccc(-c2cccc(COc3cc(OCc4cncc(C#N)c4)c(CN4CCCC[C@H]4C(=O)O)cc3Cl)c2C)c1 [Example 1020, (S)-1-(4-((3′-(3-acrylamidopropoxy)-2-methyl-[1,1′-biphenyl]-3-yl)methoxy)-5-chloro-2-((5-cyanopyridin-3-yl)methoxy)benzyl)piperidine-2-carboxylic Acid]	7.00 to 8.00
C=CC(=O)NCCCOc1cccc(-c2cccc(COc3cc(OCc4cncc(C#N)c4)c(CN[C@H](CO)C(=O)O)cc3Cl)c2C)c1 [Example 1021, (R)-2-((4-((3′-(3-acrylamidopropoxy)-2-methyl-[1,1′-biphenyl]-3-yl)methoxy)-5-chloro-2-((5-cyanopyridin-3-yl)methoxy)benzyl)amino)-3-hydroxypropanoic Acid]	8.00 to 9.68
Cc1c(COc2cc(OCc3cncc(S(C)(=O)=O)c3)c(CN3CCCC[C@H]3C(=O)O)cc2Cl)cccc1-c1cccc(OCCCN2CC[C@@H](O)C2)c1 [Example 1022, (S)-1-(5-chloro-4-((3′-(3-((R)-3-hydroxypyrrolidin-1-yl)propoxy)-2-methyl-[1,1′-biphenyl]-3-yl)methoxy)-2-((5-(methylsulfonyl)pyridin-3-yl)methoxy)benzyl)piperidine-2-carboxylic Acid]	8.00 to 9.68
Cc1c(COc2cc(OCc3cncc(S(C)(=O)=O)c3)c(CN[C@H](CO)C(=O)O)cc2Cl)cccc1-c1cccc(OCCCN2CC[C@@H](O)C2)c1 [Example 1023, (R)-2-((5-chloro-4-((3′-(3-((R)-3-hydroxypyrrolidin-1-yl)propoxy)-2-methyl-[1,1′-biphenyl]-3-yl)methoxy)-2-((5-(methylsulfonyl)pyridin-3-yl)methoxy)benzyl)amino)-3-hydroxypropanoic Acid]	8.00 to 9.68
Cc1c(COc2cc(OCc3cncc(S(C)(=O)=O)c3)c(CN[C@@](C)(CO)C(=O)O)cc2Cl)cccc1-c1cccc(OCCCN2CC[C@@H](O)C2)c1 [Example 1024, (S)-2-((5-chloro-4-((3′-(3-((R)-3-hydroxypyrrolidin-1-yl)propoxy)-2-methyl-[1,1′-biphenyl]-3-yl)methoxy)-2-((5-(methylsulfonyl)pyridin-3-yl)methoxy)benzyl)amino)-3-hydroxy-2-methylpropanoic Acid]	8.00 to 9.68
Cc1c(COc2cc(OCc3cncc(S(C)(=O)=O)c3)c(CN[C@H](CO)C(=O)O)cc2Cl)cccc1-c1cccc(OCCCN2CC[C@@H](O)C2)c1C [Example 1025, (R)-2-((5-chloro-4-((3′-(3-((R)-3-hydroxypyrrolidin-1-yl)propoxy)-2,2′-dimethyl-[1,1′-biphenyl]-3-yl)methoxy)-2-((5-(methylsulfonyl)pyridin-3-yl)methoxy)benzyl)amino)-3-hydroxypropanoic Acid]	8.00 to 9.68
Cc1c(COc2cc(OCc3cncc(S(C)(=O)=O)c3)c(CN[C@](C)(CO)C(=O)O)cc2Cl)cccc1-c1cccc(OCCCN2CC[C@@H](O)C2)c1C [Example 1026, (R)-2-((5-chloro-4-((3′-(3-((R)-3-hydroxypyrrolidin-1-yl)propoxy)-2,2′-dimethyl-[1,1′-biphenyl]-3-yl)methoxy)-2-((5-(methylsulfonyl)pyridin-3-yl)methoxy)benzyl)amino)-3-hydroxy-2-methylpropanoic Acid]	8.00 to 9.68
Cc1c(COc2cc(OCc3cncc(S(C)(=O)=O)c3)c(CN3CCCC[C@H]3C(=O)O)cc2Cl)cccc1-c1cccc(OCCCN2CC[C@@H](O)C2)c1C [Example 1027, (S)-1-(5-chloro-4-((3′-(3-((R)-3-hydroxypyrrolidin-1-yl)propoxy)-2,2′-dimethyl-[1,1′-biphenyl]-3-yl)methoxy)-2-((5-(methylsulfonyl)pyridin-3-yl)methoxy)benzyl)piperidine-2-carboxylic Acid]	8.00 to 9.68
COC(=O)C1(O)CCN(CCCOc2cccc(-c3cccc(COc4cc(OCc5cncc(C#N)c5)c(CN[C@H](CO)C(=O)O)cc4Cl)c3C)c2)CC1 [Example 1028, (R)-2-((5-chloro-2-((5-cyanopyridin-3-yl)methoxy)-4-((3′-(3-(4-hydroxy-4-(methoxycarbonyl)piperidin-1-yl)propoxy)-2-methyl-[1,1′-biphenyl]-3-yl)methoxy)benzyl)amino)-3-hydroxypropanoic Acid]	8.00 to 9.68
COC(=O)C1(O)CCN(CCCOc2cccc(-c3cccc(COc4cc(OCc5cncc(C#N)c5)c(CN[C@H](CO)C(=O)O)cc4Cl)c3C)c2C)CC1 [Example 1029, (R)-2-((5-chloro-2-((5-cyanopyridin-3-yl)methoxy)-4-((3′-(3-(4-hydroxy-4-(methoxycarbonyl)piperidin-1-yl)propoxy)-2,2′-dimethyl-[1,1′-biphenyl]-3-yl)methoxy)benzyl)amino)-3-hydroxypropanoic Acid]	8.00 to 9.68
COC(=O)C1(O)CCN(CCCOc2cccc(-c3cccc(COc4cc(OCc5cncc(C#N)c5)c(CN[C@](C)(CO)C(=O)O)cc4Cl)c3C)c2C)CC1 [Example 1030, (R)-2-((5-chloro-2-((5-cyanopyridin-3-yl)methoxy)-4-((3′-(3-(4-hydroxy-4-(methoxycarbonyl)piperidin-1-yl)propoxy)-2,2′-dimethyl-[1,1′-biphenyl]-3-yl)methoxy)benzyl)amino)-3-hydroxy-2-methylpropanoic Acid]	8.00 to 9.68
C=CC(=O)NCCNCc1cc(Cl)c(OCc2cccc(-c3cccc(OCCCN4CC[C@@H](O)C4)c3C)c2C)cc1OCc1cncc(C#N)c1 [Example 1031, (R)—N-(2-((5-chloro-2-((5-cyanopyridin-3-yl)methoxy)-4-((3′-(3-(3-hydroxypyrrolidin-1-yl)propoxy)-2,2′-dimethyl-[1,1′-biphenyl]-3-yl)methoxy)benzyl)amino)ethyl)acrylamide]	7.00 to 8.00
